ChEMBL document CHEMBL2440076, “New triarylpyrazoles as broad-spectrum anticancer agents: design, synthesis, and biological evaluation” (Eur J Med Chem, 2013)

Tests used:
[1] = tested on: HOP-92; experiment: Growth inhibition of human HOP92 cells after 48 hrs by sulforhodamine B assay; type: functional, cell-based; conditions: HOP-92, 48 h
[2] = tested on: SNB-19; experiment: Growth inhibition of human SNB19 cells assessed as cell growth at 10 uM after 48 hrs by sulforhodamine B assay; type: functional; conditions: SNB-19, 48 h, read-out: Activity
[3] = tested on: A498; experiment: Growth inhibition of human A498 cells after 48 hrs by sulforhodamine B assay; type: functional, cell-based; conditions: A498, 48 h; for CC50: read-out: LC50 (the source's name)
[4] = tested on: SW-620; experiment: Growth inhibition of human SW620 cells after 48 hrs by sulforhodamine B assay; type: functional; conditions: SW-620, 48 h; for CC50: read-out: LC50 (the source's name)
[5] = tested on: TK-10; experiment: Growth inhibition of human TK10 cells after 48 hrs by sulforhodamine B assay; type: functional; conditions: TK-10, 48 h; for CC50: read-out: LC50 (the source's name)
[6] = tested on: IGROV-1; experiment: Growth inhibition of human IGROV1 cells assessed as cell growth at 10 uM after 48 hrs by sulforhodamine B assay; type: functional; conditions: IGROV-1, 48 h, read-out: Activity
[7] = tested on: UACC-62; experiment: Growth inhibition of human UACC62 cells assessed as cell growth at 10 uM after 48 hrs by sulforhodamine B assay; type: functional; conditions: UACC-62, 48 h, read-out: Activity
[8] = tested on: A549; experiment: Growth inhibition of human A549/ATCC cells after 48 hrs by sulforhodamine B assay; type: functional; conditions: A549, 48 h
[9] = tested on: NCI-H460; experiment: Growth inhibition of human NCI-H460 cells after 48 hrs by sulforhodamine B assay; type: functional; conditions: NCI-H460, 48 h
[10] = tested on: MDA-MB-231; experiment: Growth inhibition of human MDA-MB-231 cells after 48 hrs by sulforhodamine B assay; type: functional; conditions: MDA-MB-231, 48 h
[11] = tested on: RPMI-8226; experiment: Growth inhibition of human RPMI8226 cells after 48 hrs by sulforhodamine B assay; type: functional, cell-based; conditions: RPMI-8226, 48 h; for CC50: read-out: LC50 (the source's name)
[12] = tested on: SNB-75; experiment: Growth inhibition of human SNB75 cells after 48 hrs by sulforhodamine B assay; type: functional; conditions: SNB-75, 48 h
[13] = tested on: T47D; experiment: Growth inhibition of human T47D cells after 48 hrs by sulforhodamine B assay; type: functional; conditions: for CC50: read-out: LC50 (the source's name)
[14] = tested on: K562; experiment: Growth inhibition of human K562 cells after 48 hrs by sulforhodamine B assay; type: functional; conditions: K562, 48 h; for CC50: read-out: LC50 (the source's name)
[15] = Growth inhibition of human NCI-ADR-RES cells after 48 hrs by sulforhodamine B assay; type: functional; conditions: for CC50: read-out: LC50 (the source's name)
[16] = tested on: HCT-15; experiment: Growth inhibition of human HCT15 cells after 48 hrs by sulforhodamine B assay; type: functional; conditions: HCT-15, 48 h
[17] = tested on: SW-620; experiment: Growth inhibition of human SW620 cells assessed as cell growth at 10 uM after 48 hrs by sulforhodamine B assay; type: functional; conditions: SW-620, 48 h, read-out: Activity
[18] = tested on: ACHN; experiment: Growth inhibition of human ACHN cells assessed as cell growth at 10 uM after 48 hrs by sulforhodamine B assay; type: functional; conditions: read-out: Activity
[19] = Growth inhibition of human NCI-ADR-RES cells assessed as cell growth at 10 uM after 48 hrs by sulforhodamine B assay; type: functional; conditions: read-out: Activity
[20] = tested on: Malme-3M; experiment: Growth inhibition of human MALME-3M cells after 48 hrs by sulforhodamine B assay; type: functional
[21] = tested on: OVCAR-3; experiment: Growth inhibition of human OVCAR3 cells assessed as cell growth at 10 uM after 48 hrs by sulforhodamine B assay; type: functional; conditions: OVCAR-3, 48 h, read-out: Activity
[22] = tested on: SK-MEL-28; experiment: Growth inhibition of human SK-MEL-28 cells assessed as cell growth at 10 uM after 48 hrs by sulforhodamine B assay; type: functional; conditions: SK-MEL-28, 48 h, read-out: Activity
[23] = tested on: SK-OV-3; experiment: Growth inhibition of human SKOV3 cells assessed as cell growth at 10 uM after 48 hrs by sulforhodamine B assay; type: functional; conditions: SK-OV-3, 48 h, read-out: Activity
[24] = tested on: UO-31; experiment: Growth inhibition of human UO31 cells assessed as cell growth at 10 uM after 48 hrs by sulforhodamine B assay; type: functional; conditions: UO-31, 48 h, read-out: Activity
[25] = Growth inhibition of human HCC2998 cells after 48 hrs by sulforhodamine B assay; type: functional; conditions: HCC 2998, 48 h; for CC50: read-out: LC50 (the source's name)
[26] = tested on: HOP-92; experiment: Growth inhibition of human HOP92 cells assessed as cell growth at 10 uM after 48 hrs by sulforhodamine B assay; type: functional; conditions: HOP-92, 48 h, read-out: Activity
[27] = tested on: OVCAR-4; experiment: Growth inhibition of human OVCAR4 cells assessed as cell growth at 10 uM after 48 hrs by sulforhodamine B assay; type: functional; conditions: OVCAR-4, 48 h, read-out: Activity
[28] = tested on: NCI-H522; experiment: Growth inhibition of human NCI-H522 cells assessed as cell growth at 10 uM after 48 hrs by sulforhodamine B assay; type: functional; conditions: NCI-H522, 48 h, read-out: Activity
[29] = tested on: SF-539; experiment: Growth inhibition of human SF539 cells assessed as cell growth at 10 uM after 48 hrs by sulforhodamine B assay; type: functional; conditions: SF-539, 48 h, read-out: Activity
[30] = tested on: MCF7; experiment: Growth inhibition of human MCF7 cells assessed as cell growth at 10 uM after 48 hrs by sulforhodamine B assay; type: functional; conditions: MCF7, 48 h, read-out: Activity
[31] = tested on: CAKI-1; experiment: Growth inhibition of human CAKI-1 cells after 48 hrs by sulforhodamine B assay; type: functional; conditions: CAKI-1, 48 h; for CC50: read-out: LC50 (the source's name)
[32] = tested on: HL-60(TB); experiment: Growth inhibition of human HL-60(TB) cells assessed as cell growth at 10 uM after 48 hrs by sulforhodamine B assay; type: functional; conditions: HL-60, 48 h, read-out: Activity
[33] = Growth inhibition of human Hs 578T cells after 48 hrs by sulforhodamine B assay; type: functional; conditions: for CC50: read-out: LC50 (the source's name)
[34] = tested on: OVCAR-3; experiment: Growth inhibition of human OVCAR3 cells after 48 hrs by sulforhodamine B assay; type: functional, cell-based; conditions: OVCAR-3, 48 h; for CC50: read-out: LC50 (the source's name)

## COc1cc(-c2nn(-c3cccc(NC(=O)c4ccccc4)c3)cc2-c2ccncc2)ccc1Cl
[1]
  GI50: 0.324 µM
  IC50: 0.32 µM
  LC50: > 100 µM
  TGI: 4.71 µM
[2]
  growth at 10 µM: 50%
[3]
  GI50: 0.361 µM
  IC50: 0.36 µM
  TGI: 3.14 µM
  CC50: > 100 µM
[4]
  GI50: 0.551 µM
  TGI: > 100 µM
  CC50: > 100 µM
[5]
  GI50: 7 µM
  TGI: > 100 µM
  CC50: > 100 µM
[6]
  growth at 10 µM: 47.4%
[7]
  growth at 10 µM: 32.5%
[8]
  GI50: 0.585 µM
  LC50 (concentration killing 50% of starting cells): > 100 µM
  TGI: > 100 µM
[9]
  GI50: 0.394 µM
  LC50: > 100 µM
  TGI: > 100 µM
[10]
  GI50: 1.17 µM
  LC50: > 100 µM
  TGI: 13.7 µM
[11]
  GI50: 0.85 µM
  IC50: 0.85 µM
  TGI: > 100 µM
  CC50: > 100 µM
[12]
  GI50: 0.575 µM
  LC50 (lethal concentration, 50% net cell kill): > 100 µM
  TGI: > 100 µM
[13]
  GI50: 1.9 µM
  TGI: > 100 µM
  CC50: > 100 µM
[14]
  GI50: 0.421 µM
  TGI: > 100 µM
  CC50: > 100 µM
[15]
  GI50: 0.448 µM
  TGI: > 100 µM
  CC50: > 100 µM
[16]
  GI50: 0.654 µM
  LC50: > 100 µM
  TGI: > 100 µM
[17]
  growth at 10 µM: 18.4%
[18]
  growth at 10 µM: 32.3%
[19]
  growth at 10 µM: 0.34%
[20]
  GI50: 0.537 µM
  LC50 (concentration killing 50% of starting cells): > 100 µM
  TGI: > 100 µM
[21]
  growth at 10 µM: 0.02%
[22]
  growth at 10 µM: 34.4%
[23]
  growth at 10 µM: 42.1%
[24]
  growth at 10 µM: 29.8%
[25]
  GI50: 2.32 µM
  TGI: 22.4 µM
  CC50: > 100 µM
[26]
  growth at 10 µM: 9.19%
[27]
  growth at 10 µM: 46.5%
[28]
  growth at 10 µM: -29.6%
[29]
  growth at 10 µM: -15%
[30]
  growth at 10 µM: 4.67%
[31]
  GI50: 1.16 µM
  TGI: > 100 µM
  CC50: > 100 µM
[32]
  growth at 10 µM: -18.8%
[33]
  GI50: 1.11 µM
  TGI: > 100 µM
  CC50: > 100 µM
[34]
  GI50: 0.334 µM
  IC50: 0.33 µM
  TGI: 10.9 µM
  CC50: 95.8 µM

## COc1cc(-c2nn(-c3cccc(NC(=O)Nc4cccc(C(F)(F)F)c4)c3)cc2-c2ccncc2)ccc1Cl
[1]
  GI50: 0.557 µM
  IC50: 0.56 µM
  LC50: > 50 µM
  TGI: 1.77 µM
[2]
  growth at 10 µM: 23.5%
[3]
  GI50: 0.958 µM
  IC50: 0.96 µM
  TGI: 4.04 µM
  CC50: > 50 µM
[4]
  GI50: 1.23 µM
  TGI: 14.3 µM
  CC50: 50 µM
[5]
  GI50: 1.31 µM
  TGI: 19 µM
  CC50: > 50 µM
[6]
  growth at 10 µM: 14%
[7]
  growth at 10 µM: -76.1%
[8]
  GI50: 0.794 µM
  LC50 (concentration killing 50% of starting cells): > 50 µM
  TGI: > 50 µM
[9]
  GI50: 0.763 µM
  LC50: > 50 µM
  TGI: 3.53 µM
[10]
  GI50: 0.811 µM
  LC50: 25.5 µM
  TGI: 2.37 µM
[11]
  GI50: 0.34 µM
  IC50: 0.34 µM
  TGI: 3.12 µM
  CC50: > 50 µM
[12]
  GI50: 1.16 µM
  LC50 (lethal concentration, 50% net cell kill): 50 µM
  TGI: 4.5 µM
[13]
  GI50: 1.65 µM
  TGI: > 50 µM
  CC50: 50 µM
[14]
  GI50: 0.584 µM
  TGI: > 50 µM
  CC50: > 50 µM
[15]
  GI50: 0.783 µM
  TGI: 3.64 µM
  CC50: > 50 µM
[16]
  GI50: 0.87 µM
  LC50: 50 µM
  TGI: 5.42 µM
[17]
  growth at 10 µM: 8.92%
[18]
  growth at 10 µM: 6.54%
[19]
  growth at 10 µM: -11.9%
[20]
  GI50: 1.05 µM
  LC50 (concentration killing 50% of starting cells): 33.9 µM
  TGI: 2.41 µM
[21]
  growth at 10 µM: -42%
[22]
  growth at 10 µM: -18.6%
[23]
  growth at 10 µM: 4.13%
[24]
  growth at 10 µM: 7.94%
[25]
  GI50: 1.19 µM
  TGI: 3.2 µM
  CC50: 15.3 µM
[26]
  growth at 10 µM: -33.6%
[27]
  growth at 10 µM: 11.1%
[28]
  growth at 10 µM: -30.8%
[29]
  growth at 10 µM: -34.2%
[30]
  growth at 10 µM: -6.3%
[31]
  GI50: 1.03 µM
  TGI: 3.51 µM
  CC50: > 50 µM
[32]
  growth at 10 µM: -18.7%
[33]
  GI50: 1.23 µM
  TGI: 12.5 µM
  CC50: > 50 µM
[34]
  GI50: 0.579 µM
  IC50: 0.58 µM
  TGI: 1.87 µM
  CC50: 24.7 µM
